# What was measured:
# [1] = test system: MCF-7 breast carcinoma cell line; assay: MTT cytotoxic activity against MCF-7 breast carcinoma cell line; conditions: Homo sapiens, MCF7, read-out: IC50 (μM) MCF-7
# EGFR kinase = target: T1, EGFR kinase (Homo sapiens, UniProt P00533); assay: EGFR-TK inhibition assay (BPS Bioscience EGFR Kinase Assay Kit); type: biochemical
# T1 construct: purchased BPS Bioscience 40321
# Text: S4.2.1. Cytotoxic activity evaluation
# adenocarcinoma (MCF-7) cell line.
# Dimethyl sulphoxide (DMSO) in
# S4.2.2. EGFR kinase Assay
# caspase 9 = assay: Apoptotic marker determination by qRT-PCR: caspase 9; type: cell-based; conditions: MCF-7 cells, 2.71 μM, 48 h, compared to DMSO controls
# Text: (§1) p53 is a transcription factor that both initiates and suppresses a number of target genes involved in cancer progression and apoptosis.[40] The p53 protein level increase during cellular stress and cytotoxic drugs by increased transcription or increased stability due to post-translational modifications such as phosphorylation.[41] The ability of p53 to modulate caspase activation and apoptosis induction is critical to its role as tumor suppressor.[42] Coordinately, p53 activation promotes the loss of mitochondrial potential ultimately leading to caspase activation and apoptosis.[43] […] An increase in the level of p53 was detected in the tested cell line compared with controls at 48 h. The increased expression of p53 level was coupled with increase in the level of caspase 9 in compound 6h-treated MCF-7 cell line at 48 h. The levels of p53 and caspase 9 were increased by 7.4- and 8.7-fold, respectively compared with controls (Fig. 5).
# (§2) MCF-7 cells were treated with 2.71 μM of tested hybrid for 48 h before qRT-PCR measurement and compared to untreated controls. (A) p53 level; (B) caspase 9 level.
# MCF-7 cells [2] = assay: Cell cycle analysis by flow cytometry (PI staining); type: cell-based
# Description: It is well documented that most tyrosine kinase inhibitors exert strong antiproliferative and pro-apoptotic effect.[38] […] These findings are in agreement with the previously observed for EGFR-TK structural analogues.[39]
# S4.2.3. Cell cycle analysis of compound 6h
# Cell cycle analysis in MCF-7 cells was investigated using fluorescent […] (BioVision EZCellTM Cell Cycle Analysis Kit Catalog #K920) by flow cytometry assay. MCF-7 cells at a density of 2 × 10^5 per well were harvested and washed twice in PBS. After that, the cells were incubated at 37 °C and 5% CO2. The medium was incubated with the tested compound 6h at the IC50 (µM) for 48 h, washed twice in PBS, fixed with 70% ethanol, rinsed again with PBS. Afterward, medium was stained with DNA fluorochrome PI for 15 min at 37 °C. The samples were immediately analyzed using Facs Calibur flow cytometer (Becton and Dickinson, Heidelberg, […]
# S4.2.4. Apoptosis assay for compound 6h
# (1 picture or pasted object on this page, not shown here)
# p53 = assay: Apoptotic marker determination by qRT-PCR: p53; type: cell-based; conditions: MCF-7 cells, 2.71 μM, 48 h, compared to DMSO controls
# Text: as §1, §2
# MCF-7 cells [3] = assay: Annexin V FITC/PI apoptosis staining assay by flow cytometry; type: cell-based; conditions: 2.71 μM, 48 h
# Text: In addition, an increase in the primary apoptotic cells was also observed. It is noteworthy that, the percentage of primary apoptosis was rise from 0.39 to 9.55% as compared to DMSO control (Fig. 4). According to these findings, it could be concluded that this set of compounds could halt MCF-7 cells in G1 phase and provoke apoptotic cellular death.
# Apoptosis in MCF-7 cells was investigated using fluorescent Annexin V-FITC/ PI detection kit (BioVision Annexin V-FITC Apoptosis Detection Kit, Catalog #: K101) by flow cytometry assay. MCF-7 cells at a density of 2 × 10^5 per well were treated with compound 6h at the IC50 (µM) for 48 h, then the cells were harvested and stained with Annexin V-FITC/ PI dye for 15 min in the dark at 37 °C. The samples were immediately analyzed using FACS Calibur flow cytometer (Becton and Dickinson, […]
# T1 sequence (P00533 25-1210): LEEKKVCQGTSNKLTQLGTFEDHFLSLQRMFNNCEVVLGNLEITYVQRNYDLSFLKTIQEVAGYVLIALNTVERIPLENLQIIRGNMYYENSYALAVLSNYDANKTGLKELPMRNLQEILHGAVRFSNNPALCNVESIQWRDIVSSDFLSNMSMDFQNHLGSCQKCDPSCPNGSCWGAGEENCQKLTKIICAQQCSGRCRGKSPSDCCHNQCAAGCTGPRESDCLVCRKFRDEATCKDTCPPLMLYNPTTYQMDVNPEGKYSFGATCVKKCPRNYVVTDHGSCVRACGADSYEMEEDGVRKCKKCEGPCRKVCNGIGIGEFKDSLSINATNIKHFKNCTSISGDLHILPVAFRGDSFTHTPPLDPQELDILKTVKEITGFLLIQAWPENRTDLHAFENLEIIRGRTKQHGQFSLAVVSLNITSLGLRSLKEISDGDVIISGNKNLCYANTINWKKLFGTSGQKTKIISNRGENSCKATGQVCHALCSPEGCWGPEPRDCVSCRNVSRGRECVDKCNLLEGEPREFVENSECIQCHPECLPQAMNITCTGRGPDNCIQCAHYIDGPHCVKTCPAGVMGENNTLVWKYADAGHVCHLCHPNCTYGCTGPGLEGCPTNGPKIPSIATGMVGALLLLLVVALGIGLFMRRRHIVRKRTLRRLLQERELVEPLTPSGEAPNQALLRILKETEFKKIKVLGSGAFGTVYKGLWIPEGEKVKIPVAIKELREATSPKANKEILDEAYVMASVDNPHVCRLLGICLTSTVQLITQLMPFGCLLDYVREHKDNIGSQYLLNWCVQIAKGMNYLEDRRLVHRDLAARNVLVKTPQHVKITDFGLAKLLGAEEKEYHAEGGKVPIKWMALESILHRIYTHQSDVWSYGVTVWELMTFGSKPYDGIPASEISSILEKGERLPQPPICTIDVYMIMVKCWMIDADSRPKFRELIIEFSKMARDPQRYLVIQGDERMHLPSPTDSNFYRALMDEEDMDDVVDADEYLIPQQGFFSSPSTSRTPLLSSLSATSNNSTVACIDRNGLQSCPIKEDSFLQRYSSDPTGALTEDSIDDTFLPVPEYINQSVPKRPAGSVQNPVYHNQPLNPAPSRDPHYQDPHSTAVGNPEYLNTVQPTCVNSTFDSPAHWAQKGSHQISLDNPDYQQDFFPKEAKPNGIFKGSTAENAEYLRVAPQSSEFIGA
melting point [°C],Compound,IC50 [1] [µM],also measured
208 to 210,"COc1ccc(C(=O)N/C(=C\c2cc(OC)c(OC)c(OC)c2)C(=O)NNC(=O)c2cc(-c3ccc(Br)cc3)nc3ccccc23)cc1 [Compound 6d, (Z)-N-(3-(2-(2-(4-Bromophenyl)quinoline-4-carbonyl)hydrazinyl)-3-oxo-1-(3,4,5-trimethoxyphenyl)prop-1-en-2-yl)-4-methoxybenzamide]",17.1 ± 0.55,–
258 to 260,"COc1ccc(C(=O)N/C(=C\c2ccc(F)cc2)C(=O)NNC(=O)c2cc(-c3ccc(Br)cc3)nc3ccccc23)cc1 [Compound 6e, (Z)-N-(3-(2-(2-(4-Bromophenyl)quinoline-4-carbonyl)hydrazinyl)-1-(4-fluorophenyl)-3-oxoprop-1-en-2-yl)-4-methoxybenzamide]",21.2 ± 0.68,–
276 to 278,"COc1ccc(C(=O)N/C(=C\c2ccc(Cl)cc2)C(=O)NNC(=O)c2cc(-c3ccc(Br)cc3)nc3ccccc23)cc1 [Compound 6f, (Z)-N-(3-(2-(2-(4-Bromophenyl)quinoline-4-carbonyl)hydrazinyl)-1-(4-chlorophenyl)-3-oxoprop-1-en-2-yl)-4-methoxybenzamide]",26 ± 0.84,–
261 to 263,"COc1ccc(C(=O)N/C(=C\c2ccc(Br)cc2)C(=O)NNC(=O)c2cc(-c3ccc(Br)cc3)nc3ccccc23)cc1 [Compound 6g, (Z)-N-(1-(4-Bromophenyl)-3-(2-(2-(4-bromophenyl)quinoline-4-carbonyl)hydrazinyl)-3-oxoprop-1-en-2-yl)-4-methoxybenzamide]",39.1 ± 1.26,–
217 to 219,"COc1ccc(C(=O)N/C(=C\c2cc(Br)c(OC(C)=O)c(Br)c2)C(=O)NNC(=O)c2cc(-c3ccc(Br)cc3)nc3ccccc23)cc1 [Compound 6i, (Z)-2,6-Dibromo-4-(3-(2-(2-(4-bromophenyl)quinoline-4-carbonyl)hydrazinyl)-2-(4-methoxybenzamido)-3-oxoprop-1-enyl)phenyl acetate]",8.77 ± 0.28,–

# The remaining lines, values behind:
Compound,melting point [°C],IC50 [1] [µM],also measured
"COc1ccc(C(=O)N/C(=C\c2ccco2)C(=O)NNC(=O)c2cc(-c3ccc(Br)cc3)nc3ccccc23)cc1 [Compound 5, (Z)-N-(3-(2-(2-(4-Bromophenyl)quinoline-4-carbonyl)hydrazinyl)-1-(furan-2-yl)-3-oxoprop-1-en-2-yl)-4-methoxybenzamide]",257 to 259,12.5 ± 0.4,–
"COc1ccc(C(=O)N/C(=C\c2ccc(C)cc2)C(=O)NNC(=O)c2cc(-c3ccc(Br)cc3)nc3ccccc23)cc1 [Compound 6a, (Z)-N-(3-(2-(2-(4-Bromophenyl)quinoline-4-carbonyl)hydrazinyl)-3-oxo-1-p-tolylprop-1-en-2-yl)-4-methoxybenzamide]",246 to 248,3.39 ± 0.11,IC50 (EGFR kinase): 0.31 µM
"COc1ccc(C(=O)N/C(=C\c2ccc(OC)c(OC)c2)C(=O)NNC(=O)c2cc(-c3ccc(Br)cc3)nc3ccccc23)cc1 [Compound 6b, (Z)-N-(3-(2-(2-(4-Bromophenyl)quinoline-4-carbonyl)hydrazinyl)-1-(3,4-dimethoxyphenyl)-3-oxoprop-1-en-2-yl)-4-methoxybenzamide]",235 to 237,5.94 ± 0.17,–
"COc1ccc(C(=O)N/C(=C\c2ccc(OC)c(OC)c2OC)C(=O)NNC(=O)c2cc(-c3ccc(Br)cc3)nc3ccccc23)cc1 [Compound 6c, (Z)-N-(3-(2-(2-(4-Bromophenyl)quinoline-4-carbonyl)hydrazinyl)-3-oxo-1-(2,3,4-trimethoxyphenyl)prop-1-en-2-yl)-4-methoxybenzamide]",192 to 194,51.8 ± 1.54,–
"COc1ccc(C(=O)N/C(=C\c2ccc([N+](=O)[O-])cc2)C(=O)NNC(=O)c2cc(-c3ccc(Br)cc3)nc3ccccc23)cc1 [Compound 6h, (Z)-N-(3-(2-(2-(4-Bromophenyl)quinoline-4-carbonyl)hydrazinyl)-1-(4-nitrophenyl)-3-oxoprop-1-en-2-yl)-4-methoxybenzamide]",–,2.71 ± 0.09,"increase of caspase 9 level vs controls (caspase 9): 8.7 fold; G1 phase arrest, fold more than DMSO controls (MCF-7 cells [2]; 2.71 μM): 1.3 fold; percentage of cells in G2/M phase (MCF-7 cells [2]; 2.71 μM (IC50) of compound, 48 h, DMSO control 15.56%): 9.37%; percentage of cells in S phase (MCF-7 cells [2]; 2.71 μM (IC50) of compound, 48 h, DMSO control 37.51%): 28.48%; proportion of cells in G1 phase (MCF-7 cells [2]; 2.71 μM (IC50) of compound, 48 h, DMSO control 46.93%): 62.15%; increase of p53 level vs controls (p53): 7.4 fold; percentage of secondary cellular apoptosis (MCF-7 cells [3]; DMSO control 0.11%): 17.78%; percentage of primary apoptosis (MCF-7 cells [3]; DMSO control 0.39%): 9.55%; IC50 (EGFR kinase): 0.22 µM"
"COc1cccc2c1C(=O)c1c(O)c3c(c(O)c1C2=O)C[C@@](O)(C(=O)CO)C[C@@H]3O[C@H]1C[C@H](N)[C@H](O)[C@H](C)O1 [Dox, Doxorubicin, reference compound]",–,6.18 ± 0.2,–
